Assay results taken from patent publication US20240139149A1, “THERAPEUTIC USES OF UROLITHIN DERIVATIVES” (Vandria SA, priority 2022, published 2024).

Columns and labels:
mouse T lymphocytes = experiment: Proportion of mouse T memory stem cells (Tscm); type: cell-based; conditions: 2 μM, 72 h
Description: T cells were isolated and stimulated as described in Example 14.
Tscm represent a subset of minimally differentiated T cells, which share a CD44^loCD62L^hi phenotype with naïve T cells, but are phenotypically distinct by expressing high levels of Sca1 (Gattinoni et al., 2009). Tscm are therefore identified as CD44^−CD62L^+Sca1^hi cells.
Flow cytometry and analysis was performed as described in Example 14.

[1] = test system: cortical neurons and microglial cells injured with Aβ1-42; experiment: Rat primary culture of cortical neurons and microglial cells injured with Aβ1-42; type: cell-based
Description: Pregnant female rat (Wistar) of 15 days of gestation were killed using a deep anesthesia with CO2 chamber and a cervical dislocation. Fetuses were collected and immediately placed in ice-cold L15 Leibovitz medium with a 2% penicillin (10,000 U/mL) and streptomycin (10 mg/mL) solution (PS) and 1% bovine serum albumin (BSA). Cortex were specifically dissected and then were treated for 20 min at 37° C. with a trypsin-EDTA solution at a final concentration of 0.05% trypsin and 0.02% EDTA. The dissociation was stopped by addition of Dulbecco's modified Eagle's medium (DMEM) with 4.5 g/L of glucose, containing DNAse I grade II (final concentration 0.5 mg/mL) and 10% fetal calf serum (FCS). Cells were mechanically dissociated by three forced passages through the tip of a 10-mL pipette. Cells were then centrifuged at 515×g for 10 min at 4° C. The supernatant was discarded, and the pellet was resuspended in a defined culture medium consisting of Neurobasal medium with a 2% solution of B27 supplement, 2 mmol/liter of L-glutamine, 2% of PS solution, 10 ng/mL of brain-derived neurotrophic factor (BDNF), 2% of heat-inactivated horse serum, 2% of heat-inactivated FCS, 1 g/L of glucose, 1 mM of sodium pyruvate, and 100 μM of non-essential amino acids. The presence of serum in the medium allows the growth of the microglial cells. Viable cells were counted in a Neubauer cytometer, using the trypan blue exclusion test.
The cells were seeded at a density of 45 000 per well in 96-well plate precoated with poly-L-lysine and were cultured at 37° C. in an air (95%)—CO2 (5%) incubator. The medium was changed every 2 days.
On day 11 of culture, the compounds were dissolved in the appropriate vehicle and pre-incubated with the primary cortical neurons for one hour (1 h), before Aβ1-42 exposure.
On day 11 of culture, the cortical neurons were injured with the AP 1-42 peptide. AP 1-42 peptide was dissolved in the defined culture medium mentioned above, at an initial concentration of 20 μM. The solution was gently agitated for 3 days at 37° C. in the dark and immediately used after being properly diluted in culture medium to the concentration used (5 μM, 0.5 μM oligomers precisely evaluated by automatic WB). The AP 1-42 solution was applied on the culture at […] (0.5 μM oligomers, AβO), in presence of the compound, for 72 hours.
72 hours after the application of Aβ, the cell culture supernatant was removed. Cells were then washed with phosphate-buffered saline (PBS) and fixed with a cold solution of ethanol (95%) and acetic acid (5%) for 5 min at −20° C. After two washing steps with cold PBS, cells permeabilized and unspecific binding sites were blocked with a solution of PBS containing 0.1% of saponin and 1% of FCS, for 15 min at RT. Cells were incubated for 2 hours with: • a) Monoclonal anti-MAP2 antibody produced in mouse at dilution of 1/400 in PBS containing 1% FCS, 0.1% saponin, for 2 hours at room temperature. • b) Rabbit polyclonal antibody anti-SIRP alpha/CD172a (OX-41) at dilution of 1/400 in PBS containing 1% fetal calf serum and 0.1% of saponin (this antibody stains specifically the microglia and will allow to evaluate the activation of the microglial cells).
For each condition, 30 pictures (representative of the whole well area) were automatically taken using ImageXpress® (Molecular Devices) at 20× magnification using the same acquisition parameters. From images, the analyses were automatically performed by MetaXpress® (Molecular Devices). The following read-outs were measured: • Total neuron survival (number of MAP-2(+) neurons), • Total length of neurite network of MAP-2(+) neurons (in μm) • Total area of activated microglia (area of OX-41 signal, in μm^2)
All values are expressed as mean+/−SEM (standard error of the mean). Statistical analysis was performed by one-way ANOVA followed by Fisher's LSD test, with GraphPad Prism. p<0.05 was considered significant.

[2] = 123 and 370 nM, Aβ1-42 72 hours

`O=c1oc2cc(O)ccc2c2ccc(OC3CCOCC3)cc12` [compound 33, 3-hydroxy-8-((tetrahydro-2H-pyran-4-yl)oxy)-6H-benzo[c]chromen-6-one] was tested, and the “increase in the percentage of Tscm in CD8+ cells vs DMSO” value (mouse T lymphocytes) was 81%, the “percentage of Tscm in CD8+ cells” value (mouse T lymphocytes; DMSO 16.7%) was 30.2% and the “microglial activation (conclusion)” value [1] was “significantly reduce”. For the same compound, the “neuroprotection in the inflammatory in vitro model (conclusion)” value [1] was “neuroprotective”, the “neurite network of cortical neurons (MAP-2)” value [1, 2] was “significantly protect” and the “survival of cortical neurons (MAP-2)” value [1, 2] was “significantly protect”. For the same compound, the “microglial activation (OX-41)” value ([1]; between 41.1 nM and 370 nM, Aβ1-42 72 hours) was “significant decrease”.
